Source: US10899754B2, “Modulators of indoleamine 2,3-dioxygenase” (GLAXOSMITHKLINE INTELLECTUAL PROPERTY DEVELOPMENT LIMITED, priority 2016, dated 2021)

Columns and labels:
[1] = molecular target: indoleamine 2, 3-dioxygenase (IDO1) (Homo sapiens, UniProt P14902); experiment: IDO1 PBMC RapidFire MS assay (kynurenine detection by mass spectrometry); assay type: cell-based; design: to induce the expression of indoleamine 2, 3-dioxygenase (IDO1); host or cells: human PBMC stimulated with IFN-gamma and LPS; details: human PBMC stimulated with IFN-γ and LPS, 2 days, pIC50, read-out: PBMC PXC50 (converted)
Chain of indoleamine 2, 3-dioxygenase (IDO1) (P14902 whole entry): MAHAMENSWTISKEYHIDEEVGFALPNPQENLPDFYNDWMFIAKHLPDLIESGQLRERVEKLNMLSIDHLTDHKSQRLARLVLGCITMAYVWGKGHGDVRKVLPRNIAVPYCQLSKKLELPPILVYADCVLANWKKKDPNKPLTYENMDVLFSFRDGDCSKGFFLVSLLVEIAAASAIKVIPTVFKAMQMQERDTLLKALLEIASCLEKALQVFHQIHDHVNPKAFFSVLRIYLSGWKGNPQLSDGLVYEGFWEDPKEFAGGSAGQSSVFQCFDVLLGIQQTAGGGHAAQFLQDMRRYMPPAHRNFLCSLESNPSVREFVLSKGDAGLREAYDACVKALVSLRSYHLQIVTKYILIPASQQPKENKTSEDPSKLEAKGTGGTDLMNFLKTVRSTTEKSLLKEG
Method: IDO1 PBMC RapidFire MS Assay
(§1) Compounds of the present invention were tested via high-throughput cellular assays utilizing detection of kynurenine via mass spectrometry and cytotoxicity as end-points. For the mass spectrometry and cytotoxicity assays, human peripheral blood mononuclear cells (PBMC) (PB003F; AllCells®, Alameda, Calif.) were stimulated with human interferon-γ (IFN-γ) (Sigma-Aldrich Corporation, St. Louis, Mo.) and lipopolysaccharide from Salmonella minnesota (LPS) (Invivogen, San Diego, Calif.) to induce the expression of indoleamine 2, 3-dioxygenase (IDO1). Compounds with IDO1 inhibitory properties decreased the amount of kynurenine produced by the cells via the tryptophan catabolic pathway. Cellular toxicity due to the effect of compound treatment was measured using CellTiter-Glo® reagent (CTG) (Promega Corporation, Madison, Wis.), which is based on luminescent detection of ATP, an indicator of metabolically active cells.
(§2) In preparation for the assays, test compounds were serially diluted 3-fold in DMSO from a typical top concentration of 1 mM or 5 mM and plated at 0.5 μL in 384-well, polystyrene, clear bottom, tissue culture treated plates with lids (Greiner Bio-One, Kremsmünster, Austria) to generate 11-point dose response curves. Low control wells (0% kynurenine or 100% cytotoxicity) contained either 0.5 μL of DMSO in the presence of unstimulated (−IFN-γ/−LPS) PBMCs for the mass spectrometry assay or 0.5 μL of DMSO in the absence of cells for the cytotoxicity assay, and high control wells (100% kynurenine or 0% cytotoxicity) contained 0.5 μL of DMSO in the presence of stimulated (+IFN-γ/+LPS) PBMCs for both the mass spectrometry and cytotoxicity assays.
(§3) Frozen stocks of PBMCs were washed and recovered in RPMI 1640 medium (Thermo Fisher Scientific, Inc., Waltham, Mass.) supplemented with 10% v/v heat-inactivated fetal bovine serum (FBS) (Thermo Fisher Scientific, Inc., Waltham, Mass.), and 1× penicillin-streptomycin antibiotic solution (Thermo Fisher Scientific, Inc., Waltham, Mass.). The cells were diluted to 1,000,000 cells/mL in the supplemented RPMI 1640 medium. 50 μL of either the cell suspension, for the mass spectrometry assay, or medium alone, for the cytotoxicity assay, were added to the low control wells, on the previously prepared 384-well compound plates, resulting in 50,000 cells/well or 0 cells/well respectively. IFN-γ and LPS were added to the remaining cell suspension at final concentrations of 100 ng/ml and 50 ng/ml respectively, and 50 μL of the stimulated cells were added to all remaining wells on the 384-well compound plates. The plates, with lids, were then placed in a 37° C., 5% CO2 humidified incubator for 2 days.
(§4) Following incubation, the 384-well plates were removed from the incubator and allowed to equilibrate to room temperature for 30 minutes. For the cytotoxicity assay, CellTiter-Glo® was prepared according to the manufacturer's instructions, and 40 μL were added to each plate well. After a twenty minute incubation at room temperature, luminescence was read on an EnVision® Multilabel Reader (PerkinElmer Inc., Waltham, Mass.). For the mass spectrometry assay, 10 μL of supernatant from each well of the compound-treated plates were added to 40 μL of acetonitrile, containing 10 μM of an internal standard for normalization, in 384-well, polypropylene, V-bottom plates (Greiner Bio-One, Kremsmünster, Austria) to extract the organic analytes. Following centrifugation at 2000 rpm for 10 minutes, 10 μL from each well of the acetonitrile extraction plates were added to 90 μL of sterile, distilled H2O in 384-well, polypropylene, V-bottom plates for analysis of kynurenine and the internal standard on the RapidFire 300 (Agilent Technologies, Santa Clara, Calif.) and 4000 QTRAP MS (SCIEX, Framingham, Mass.). MS data were integrated using Agilent Technologies' RapidFire Integrator software, and data were normalized for analysis as a ratio of kynurenine to the internal standard. […]

[2] = system: human peripheral blood mononuclear cells (PBMC); experiment: PBMC cytotoxicity assay (CellTiter-Glo); assay type: cell-based; details: 2 days, pCC50
Method: as §1, §2, §3, §4

| IC50 [1] [nM] | SMILES | PBMC TOX PXC50 [2] |
| --- | --- | --- |
| 39.8 | CC(C)CN(c1ccc(-c2ccncc2C(=O)O)cc1Nc1nc(C(F)(F)F)ns1)C1CCOCC1 [example 267, 4-{4-[(2-methylpropyl)(oxan-4-yl)amino]-3-{[3-(trifluoromethyl)-1,2,4-thiadiazol-5-yl]amino}phenyl}pyridine-3-carboxylic acid] | <5 |
| 1260 | CC(C)CN(CC(C)C)c1ccc(C(C)CC(=O)O)cc1Nc1nnn(C(C)C)n1 (stereo not shown) [example 250, 3-{4-[bis(2-methylpropyl)amino]-3-{[2-(propan-2-yl)-2H-1,2,3,4-tetrazol-5-yl]amino}phenyl}butanoic acid] | <5 |
| 31.6 | COCc1nc(Nc2cc([C@H](C)CC(=O)O)ccc2N(CC(C)C)[C@H]2CC[C@@H](OC)CC2)n[nH]1 (racemic) [example 243, (3RS)-3-(3-{[5-(methoxymethyl)-1H-1,2,4-triazol-3-yl]amino}-4-[(2-methylpropyl)[(1rs&,4rs&)-4-methoxycyclohexyl]ami-no]phenyl)butanoic acid] | <5 |
| 3.16 | CC(C)CN(c1ccc([C@H](C)CC(=O)O)cc1Nc1nc(Cl)ns1)C1CCOCC1 [Example 25, (R)-3-(3-((3-chloro-1,2,4-thiadiazol-5-yl)amino)-4-(isobutyl(tetrahydro-2H-pyran-4-yl)amino)phenyl)butanoic Acid] | <5 |
| 100 | CC(C)CN(c1ccc([C@H](C)CC(=O)O)cc1Nc1n[nH]c(C(F)(F)F)n1)[C@H]1CC[C@H](O)CC1 (racemic) [example 219, (3RS)-3-{4-[(2-methylpropyl)[(1rs&,4rs&)-4-hydroxycyclohexyl]amino]-3-{[5-(trifluoromethyl)-1H-1,2,4-triazol-3-yl]amino}phenyl}butanoic acid] | <5 |
| 2.51 | CC(C)CN(c1ccc([C@H](C)CC(=O)O)cc1Nc1ccc(C#N)nn1)C1CCOCC1 [Example 24, (R)-3-(3-((6-cyanopyridazin-3-yl)amino)-4-(isobutyl(tetrahydro-2H-pyran-4-yl)amino)phenyl)butanoic Acid] | <5 |
| 200 | CO[C@H]1CC[C@H](N(CC(C)C)c2ccc([C@H](C)CC(=O)O)cc2Nc2n[nH]c(C#N)n2)CC1 (racemic) [example 222, (3RS)-3-{3-[(5-cyano-1H-1,2,4-triazol-3-yl)amino]-4-[(2-methylpropyl)[(1rs&,4rs&)-4-methoxycyclohexyl]ami-no]phenyl}butanoic acid] | <5 |
| 2 | COCCC(=O)N1CCC(N(CC(C)C)c2ccc([C@H](C)CC(=O)O)cc2Nc2nc(C(F)(F)F)ns2)CC1 [Example 68, (R)-3-(4-(isobutyl(1-(3-methoxypropanoyl)piperidin-4-yl)amino)-3-((3-(trifluoromethyl)-1,2,4-thiadiazol-5-yl)amino)phenyl)butanoic Acid] | <5 |
| 6.31 | CO[C@H]1CC[C@@H](N(CC(C)C)c2ccc([C@H](C)CC(=O)O)cc2Nc2n[nH]c(C3CC3)n2)CC1 [Example 63, (R)-3-(3-((5-cyclopropyl-1H-1,2,4-triazol-3-yl)amino)-4-(isobutyl((cis)-4-methoxycyclohexyl)amino)phenyl)butanoic Acid] | <5 |
| 398 | CC(C)CN(c1ccc([C@H](C)CC(=O)O)cc1Nc1ncn[nH]1)C1CCOCC1 [example 242, (3R)-3-{4-[(2-methylpropyl)(oxan-4-yl)amino]-3-[(1H-1,2,4-triazol-5-yl)amino]phenyl}butanoic acid] | <5 |
| 15.8 | CC(C)CN(c1ccc([C@H](C)CC(=O)O)cc1Nc1nc(C(F)(F)F)c[nH]1)C1CCOCC1 [Example 114, (R)-3-(4-(isobutyl(tetrahydro-2H-pyran-4-yl)amino)-3-((4-(trifluoromethyl)-1H-imidazol-2-yl)amino)phenyl)butanoic Acid] | <5 |
| 501 | CC(C)CN(c1ccc([C@H](C)CC(=O)O)cc1Nc1cnc(C(N)=O)nc1)C1CCOCC1 [example 263, (3R)-3-{3-[(2-carbamoylpyrimidin-5-yl)amino]-4-[(2-methylpropyl)(oxan-4-yl)amino]phenyl}butanoic acid] | <5 |
| 1 | CO[C@H]1CC[C@@H](N(CC(C)C)c2ccc([C@H](C)CC(=O)O)cc2Nc2nc(Cl)ns2)CC1 [Example 48, (R)-3-(3-((3-chloro-1,2,4-thiadiazol-5-yl)amino)-4-(isobutyl((1s,4S)-4-methoxycyclohexyl)amino)phenyl)butanoic Acid] | <5 |
| 2.51 | CC(C)CN(c1ccc([C@H](C)CC(=O)NS(=O)(=O)N(C)C)cc1Nc1nc(C(F)(F)F)ns1)C1CCOCC1 [Example 108, (R)—N—(N,N-Dimethylsulfamoyl)-3-(4-(isobutyl(tetrahydro-2H-pyran-4-yl)amino)-3-((3-(trifluoromethyl)-1,2,4-thiadiazol-5-yl)amino)phenyl)butanamide] | <5 |
| 501 | CC(C)CN(c1ccc([C@H](C)CC(=O)O)cc1Nc1n[nH]c(C(N)=O)n1)C1CCOCC1 [example 227, (3R)-3-{3-[(5-carbamoyl-1H-1,2,4-triazol-3-yl)amino]-4-[(2-methylpropyl)(oxan-4-yl)amino]phenyl}butanoic acid] | <5 |
| 1.58 | COC(=O)c1c[nH]c(Nc2cc([C@H](C)CC(=O)O)ccc2N(CC(C)C)C2CCCCC2)n1 [Example 77, (R)-3-(4-(cyclohexyl(isobutyl)amino)-3-((4-(methoxycarbonyl)-1H-imidazol-2-yl)amino)phenyl)butanoic Acid] | <5 |
| 1.58 | CO[C@H]1CC[C@H](N(CC(C)C)c2ccc([C@H](C)CC(=O)O)cc2Nc2nc(C(F)(F)F)ns2)CC1 [Example 50, (R)-3-(4-(isobutyl((1r,4R)-4-methoxycyclohexyl)amino)-3-((3-(trifluoromethyl)-1,2,4-thiadiazol-5-yl)amino)phenyl)butanoic Acid] | <5 |
| 0.631 | CO[C@H]1CC[C@@H](N(CC(C)C)c2ccc([C@H](C)CC(=O)O)cc2Nc2nc(C(F)(F)F)ns2)CC1 [Example 43, (R)-3-(4-(isobutyl((1s,4S)-4-methoxycyclohexyl)amino)-3-((3-(trifluoromethyl)-1,2,4-thiadiazol-5-yl)amino)phenyl)butanoic Acid] | <5 |
| 398 | CC(C)CN(c1ccc(C(C)CC(=O)O)cc1Nc1nnc(C(=O)NC(C)C)s1)C1CCCCC1 (stereo not shown) [example 245, 3-{4-[cyclohexyl(2-methylpropyl)amino]-3-({5-[(propan-2-yl)carbamoyl]-1,3,4-thiadiazol-2-yl}amino)phenyl}butanoic acid] | <5 |
| 100 | CC(C)CN(CCCCCNC(=O)OC1CC/C=C/CCC1)c1ccc(C(C)CC(=O)O)cc1Nc1nc(C(F)(F)F)ns1 (stereo not shown) [example 259, 3-(4-{[5-({[(4E)-cyclooct-4-en-1-yloxy]carbonyl}amino)pentyl](2-methylpropyl)amino}-3-{[3-(trifluoromethyl)-1,2,4-thiadiazol-5-yl]amino}phenyl)butanoic acid] | <4.3 |
